Values of other authors as cited in US20050209551A1, “Detoxification and breast health preparations” (priority 2004, published 2005).

Key:
[1] = system: precancerous lesions of the cervix and laryngeal papillomas; details: pathologies with a human papillomavirus (HPV); reported
[2] = oral administration

SMILES	clinical effectiveness in treating precancerous lesions of the cervix and laryngeal papillomas [1]	fraction of EDTA absorbed when administered by mouth ([2]; general consensus)	unabsorbed EDTA that remains within the digestive tract ([2]; reported)
c1ccc2c(Cc3c[nH]c4ccccc34)c[nH]c2c1 [DIM, 3,3′-diindolylmethane]	clinically effective	–	–
O=C(O)CN(CCN(CC(=O)O)CC(=O)O)CC(=O)O [EDTA, ethylene-diaminetetraacetic acid]	–	about five	95%
OCc1c[nH]c2ccccc12 [Example I3C, indole-3-carbinol]	clinically effective	–	–
